Results reported in the supplement of paper PMC10307832.

How the values were obtained:
Experiment in all cases: relative viability (nuclei count vs DMSO), 5 days (fraction); higher = more cells survive
BI-D1870 + Pictilisib = compound: CC(C)CCN1c2nc(Nc3cc(F)c(O)c(F)c3)ncc2N(C)C(=O)C1C [BI-D1870] + CS(=O)(=O)N1CCN(Cc2cc3nc(-c4cccc5[nH]ncc45)nc(N4CCOCC4)c3s2)CC1 [Pictilisib] (partner 1 µM)
In short: (§1)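 Nuclei were stained with Hoechst during a one-step fixation (final 0.05% Triton X-100, 1% formaldehyde, 1 ug/ml Hoechst) carried out 5 days after dosing, then counted on 4× images. The cells, lung cancer lines in 1536-well plates, had been dosed by pin tool the day after seeding with one drug alone or a fixed anchor-drug dose plus five library-drug doses (not always all listed) in √10 steps. Relative viability is the nuclei count in treated wells divided by that in vehicle wells, and each value is the median of duplicate plates.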

Zebularine + Lapatinib = compound: O=c1ncccn1[C@@H]1O[C@H](CO)[C@@H](O)[C@H]1O [Zebularine] + CS(=O)(=O)CCNCc1ccc(-c2ccc3ncnc(Nc4ccc(OCc5cccc(F)c5)c(Cl)c4)c3c2)o1 [Lapatinib] (partner 2 µM)
In short: as §1

Zebularine + Alpelisib = compound: O=c1ncccn1[C@@H]1O[C@H](CO)[C@@H](O)[C@H]1O [Zebularine] + Cc1nc(NC(=O)N2CCC[C@H]2C(N)=O)sc1-c1ccnc(C(C)(C)C(F)(F)F)c1 [Alpelisib] (partner 2 µM)
In short: as §1

BI-D1870 + Lapatinib = compound: CC(C)CCN1c2nc(Nc3cc(F)c(O)c(F)c3)ncc2N(C)C(=O)C1C [BI-D1870] + CS(=O)(=O)CCNCc1ccc(-c2ccc3ncnc(Nc4ccc(OCc5cccc(F)c5)c(Cl)c4)c3c2)o1 [Lapatinib] (partner 2 µM)
In short: as §1

Cell Line | relative viability (BI-D1870 + Pictilisib; first compound 0.04 µM) | relative viability (BI-D1870 + Pictilisib; first compound 0.1265 µM) | relative viability (BI-D1870 + Pictilisib; first compound 0.4 µM) | relative viability (BI-D1870 + Pictilisib; first compound 1.265 µM) | relative viability (BI-D1870 + Pictilisib; first compound 4 µM) | relative viability (Zebularine + Lapatinib; first compound 1 µM) | relative viability (Zebularine + Lapatinib; first compound 3.162 µM) | relative viability (Zebularine + Lapatinib; first compound 10 µM) | relative viability (Zebularine + Lapatinib; first compound 31.62 µM) | relative viability (Zebularine + Lapatinib; first compound 100 µM) | relative viability (Zebularine + Alpelisib; first compound 1 µM) | relative viability (Zebularine + Alpelisib; first compound 3.162 µM) | relative viability (Zebularine + Alpelisib; first compound 10 µM) | relative viability (Zebularine + Alpelisib; first compound 31.62 µM) | relative viability (Zebularine + Alpelisib; first compound 100 µM) | relative viability (BI-D1870 + Lapatinib; first compound 0.04 µM) | relative viability (BI-D1870 + Lapatinib; first compound 0.1265 µM) | relative viability (BI-D1870 + Lapatinib; first compound 0.4 µM) | relative viability (BI-D1870 + Lapatinib; first compound 1.265 µM) | relative viability (BI-D1870 + Lapatinib; first compound 4 µM)
NCI-H2228 | 0.395 | 0.356 | 0.448 | 0.468 | 0.225 | 1.19 | 1.04 | 0.66 | 0.638 | 0.281 | 0.782 | 0.615 | 0.632 | 0.693 | 0.374 | 1.2 | 0.854 | 0.989 | 0.927 | 0.482
IA-LM | 0.406 | 0.294 | 0.268 | 0.196 | 0.106 | 0.908 | 1.07 | – | 0.773 | 0.599 | 0.768 | 0.584 | 0.494 | 1.13 | 0.996 | 0.972 | 0.906 | 0.862 | 0.614 | 0.213
NCI-H647 | 0.497 | 0.387 | 0.444 | 0.512 | 0.34 | 1.35 | 1.03 | 0.227 | 0.212 | 0.14 | 1.05 | 0.932 | 0.422 | 0.246 | 0.167 | 1.26 | 0.927 | 1.02 | 1.03 | 0.671
SK-MES-1 | 0.345 | 0.332 | 0.291 | 0.308 | 0.23 | 0.484 | 0.435 | 0.397 | 0.427 | 0.269 | 0.902 | 1.01 | 0.596 | 0.575 | 0.345 | 0.468 | 0.443 | 0.417 | 0.509 | 0.356
NCI-H2170 | 0.287 | 0.333 | 0.347 | 0.301 | 0.302 | 0.302 | 0.263 | 0.251 | 0.26 | 0.266 | 0.85 | 0.84 | 0.543 | 0.684 | 0.507 | 0.309 | 0.238 | 0.278 | 0.275 | 0.234
NCI-H2085 | 0.439 | 0.494 | 0.413 | 0.518 | 0.558 | 0.833 | 0.747 | 0.647 | 0.773 | 0.633 | 1.04 | 0.977 | 0.802 | 0.96 | 0.535 | 0.731 | 0.71 | 0.739 | 0.926 | 0.654
SW 1573 | 0.6 | 0.414 | 0.47 | 0.402 | 0.368 | 1.24 | 0.773 | 0.502 | 1.23 | 0.873 | 0.728 | 0.792 | 0.448 | 0.743 | 0.646 | 1.13 | 1.16 | 1.11 | 1.25 | 1.14
NCI-H727 | 0.425 | 0.35 | 0.354 | 0.509 | 0.366 | 0.724 | 0.797 | 0.65 | 0.948 | 0.772 | – | 0.531 | 0.564 | 0.665 | 0.485 | 1.15 | 0.819 | 0.786 | 1.18 | 0.673
LOU-NH91 | 0.413 | 0.503 | 0.504 | 0.587 | 0.44 | 0.715 | 0.731 | 0.712 | 0.705 | 0.606 | 0.703 | 0.719 | 0.686 | 0.693 | 0.56 | 0.837 | 0.717 | 0.782 | 0.837 | 0.677
NCI-H3122 | 0.632 | 0.434 | 0.604 | 0.653 | 0.62 | 1.12 | 1.05 | 0.911 | 1.04 | 1.05 | 0.991 | 0.822 | 0.573 | 0.871 | 0.703 | 1.02 | 0.985 | 0.983 | 1.01 | 0.967
NCI-H460 | 0.437 | 0.364 | 0.31 | 0.391 | 0.33 | 1.05 | 0.897 | 0.255 | 0.294 | 0.0468 | 0.519 | 0.679 | 0.217 | 0.215 | 0.115 | 1.28 | 0.823 | 0.941 | 0.837 | 0.586
NCI-H650 | 0.9 | 0.745 | 0.87 | 0.811 | 0.651 | 1.32 | 0.805 | 0.496 | 0.565 | 0.276 | 1.04 | 1.2 | 0.894 | 0.462 | 0.319 | 1.04 | 0.726 | 0.836 | 0.975 | 0.879
NCI-H661 | 0.377 | 0.44 | 0.36 | 0.505 | 0.313 | 0.443 | 0.463 | 0.461 | 0.436 | 0.583 | 0.653 | 0.498 | 0.333 | 0.737 | 0.603 | 0.56 | 0.406 | 0.45 | 0.442 | 0.499
NCI-H1793 | 0.295 | 0.308 | 0.227 | 0.347 | 0.288 | 0.826 | 0.882 | 0.339 | 0.648 | 0.304 | 0.812 | 0.7 | 0.391 | 0.357 | 0.193 | 0.937 | 0.557 | 0.679 | 1.03 | 0.971
NCI-H1734 | 0.5 | 0.401 | 0.434 | 0.472 | 0.358 | 1.05 | 1.01 | 0.452 | 0.5 | 0.493 | 0.738 | 0.725 | 0.387 | 0.396 | 0.347 | 1.27 | 1.07 | 0.975 | 1.01 | 0.72
LXF-289 | 0.833 | 0.763 | 0.798 | 0.745 | 0.665 | 0.986 | 0.92 | 0.818 | 0.783 | 0.271 | 1.08 | 1.06 | 0.827 | 0.811 | 0.329 | 0.927 | 0.831 | 0.881 | 0.87 | 0.788
